In patent publication US9115367B2, “Stomata-increasing agent, polypeptide, method for increasing number and/or density of stomata in plant, and method for increasing yield of plant” (KYOTO UNIVERSITY, priority 2009, dated 2015):
Where no end group is shown, it is not given here.

Tests used:
[1] = system: Arabidopsis thaliana {Lti6b-GFP line}; assay: Administration of purified recombinant stomagen to germinated seedlings (Example 4); type: in vivo
Description: Seeds of Arabidopsis thaliana {Lti6b-GFP line} were maintained in a B5 sterilized medium {manufactured by NIHON PHARMACEUTICAL CO., LTD, catalogue number: 399-00621} for germination. To the Lti6b-GFP line at 2 days after germination was administered the purified recombinant stomagen obtained in Example 2, so as to have a concentration of 2 μM. Thereafter, the Lti6b-GFP line was grown for 3 days at 22° C. The abaxial epidermis of the cotyledons was observed under a confocal microscope. The same operation was carried out as described above, using as a control an Lti6b-GFP line to which stomagen was not administered. The abaxial epidermis of the cotyledons was observed. A confocal microscopic image of abaxial epidermis of the cotyledon of the Lti6b-GFP-expressing line to which the purified recombinant stomagen was not administered in Example 4 is shown in FIG. 26 (a) and a confocal microscopic image of abaxial epidermis of the cotyledon of the Lti6b-GFP-expressing line to which the purified recombinant stomagen (2 μM) was administered in Example 4 is shown in FIG. 26 (b). In the figures, a scale bar represents 50 μm.

spch mutant = assay: Administration of purified recombinant stomagen to spch mutant (Test Example 9); type: in vivo, Arabidopsis thaliana; conditions: 2 μM administered to spch mutant at 2 days after germination, grown 3 days; abaxial epidermis of cotyledon
Description: The seeds of the spch mutant or the seeds of Arabidopsis thaliana Col-0 line (stock number: CS60000) {wild-type strain} were maintained in a B5 sterilized medium for germination. To the spch mutant or the wild-type strain at 2 days after germination was administered the purified recombinant stomagen obtained in Example 2, so as to have a concentration of 2 μM. Thereafter, the spch mutant or the wild-type strain was grown at 22° C. for 3 days. The abaxial epidermis of the cotyledon was observed under a confocal microscope {manufactured by Zeiss, trade name: LSM510 META microscope}. The abaxial epidermis of the cotyledons was observed by carrying out the same operation was carried out as described above with the use of a spch mutant line to which stomagen was not administered as a control. A confocal microscopic image of abaxial epidermis of the cotyledon of the spch mutant to which purified recombinant stomagen was not administered in Test Example 9 is shown in FIG. 28 (a), a confocal microscopic image of abaxial epidermis of the cotyledon of the spch mutant to which purified recombinant stomagen (2 μM) was administered in Test Example 9 is shown in FIG. 28 (b), and a confocal microscopic image of abaxial epidermis of the cotyledon of the wild-type strain to which purified recombinant stomagen (2 μM) was administered in Test Example 9 is shown in FIG. 28 (c).

soybean (Kariyutaka) = assay: Addition of synthetic stomagen to soybean shoot apex (Example 8); type: in vivo; conditions: 1 μM, 10 μM or 100 μM added to shoot apex at second leaf stage, grown for a week
Description: The seeds of soybean (Kariyutaka) were seeded to a pot containing potting compost, germinated and then grown until the second leaf stage. Then, the synthetic stomagen obtained in Example 5 was added to the shoot apex, so as to have a concentration of 1 μM, 10 μM or 100 μM. Thereafter, the resulting plant was grown for a week and observed under a differential interference microscope {manufactured by Zeiss, trade name: Axioskop plus microscope}, to determine the number of stomata in a square area of 0.22 mm^2. Then, stomatal density was calculated. Here, statistical analysis was conducted using R statistical analysis software. […] In the figure, an open triangle, an open square and an open circle each show a different plant.

[2] = system: Arabidopsis thaliana Col-0 line; assay: Heat and lyophilization treatment of stomagen, then stomatal density test (Test Example 16); type: in vivo; conditions: 60° C. for 5 minutes, 90° C. for 5 minutes or lyophilized; administered at 3 μM, cotyledon
Description: The chemically synthesized stomagen obtained in Example 5 was incubated at 60° C. for 5 minutes (sample number 3) or at 90° C. for 5 minutes (sample number 4). In addition, the chemically synthesized stomagen obtained in Example 5 was lyophilized (sample number 5).
The seeds of Arabidopsis thaliana Col-0 line (stock number: CS60000) were maintained and germinated in a B5 sterilized medium. To the Arabidopsis thaliana Col-0 line (stock number: CS60000) at 2 days after germination was administered the untreated stomagen (sample number 2), the stomagen incubated at 60° C. for 5 minutes (sample number 3), the stomagen incubated at 90° C. for 5 minutes (sample number 4), or the lyophilized stomagen (sample number 5), so as to have a concentration of 3 μM.
Thereafter, the Arabidopsis thaliana Col-0 line (stock number: CS60000) was grown at 22° C. for 3 days. Next, the cotyledon was collected, and the surface of the cotyledon was observed under a confocal microscope {manufactured by Zeiss, trade name: LSM510 META microscope}, to determine the number of stomata in a square area of 0.22 mm^2. Then, stomatal density was calculated. […] Stomatal density was calculated by carrying out the same operation as described above with the use of Arabidopsis thaliana Col-0 line (stock number: CS60000) to which stomagen was not administered as a control (sample number 1). […]

[3] = system: Arabidopsis thaliana {Lti6b-GFP line}; assay: Administration of synthetic stomagen to germinated seedlings (Example 6); type: in vivo
Description: The seeds of Arabidopsis thaliana {Lti6b-GFP line} were maintained in a B5 sterilized medium for germination. To the Lti6b-GFP line at 2 days after germination was administered the synthetic stomagen obtained in Example 5, so as to have a concentration of 300 nM. Thereafter, the Lti6b-GFP line was grown for 3 days at 22° C. Next, the cotyledon was collected. The surface was observed under a confocal microscope {manufactured by Zeiss, trade name: LSM510 META microscope}, to determine the number of stomata in a square area of 0.22 mm^2. Then, stomatal density was calculated. Here, statistical analysis was conducted by using R statistical analysis software. In addition, stomatal density was calculated by carrying out the same operation as described above with the use of an Lti6b-GFP line to which stomagen was not administered as a control. The result of examining the relationship between the amount of synthesized stomagen and stomatal density in Example 6 is shown in FIG. 27.

[4] = system: rice {strain “Nipponbare”}; assay: Administration of synthetic stomagen to rice seeds (Test Example 14); type: in vivo; conditions: 200 μL of 80 μM stomagen added to 5 mL water at seeding; abaxial epidermis of second leaf at 32 days after seeding; vs not administered
Description: The seeds of rice {strain “Nipponbare”} were seeded to a container {50-mL volume, manufactured by greiner} with 5 mL of desalted water, and thereafter 200 μL of 80 μM stomagen (the synthetic stomagen obtained in Example 5) was added thereto. Then, the seeds were maintained at 22° C. for 8 days. Thereafter, the resulting plant was grown at 22° C. in a B5 sterilized medium. The second leaves of rice at 32 days after seeding were collected. Then, the second leaves were fixed and made transparent, and then stomata were stained by carrying out the same operation as in Test Example 1. Thereafter, the abaxial epidermis of the second leaves was observed under a differential interference microscope {manufactured by Zeiss, trade name: Axioskop plus microscope}. The abaxial epidermis of the second leaves of the rice at 32 days after seeding was observed by carrying out the same procedure as in the above with the use of a rice to which stomagen was not administered as a control. A differential interference image of abaxial epidermis of the second leaf of the rice to which synthesized stomagen was administered in Test Example 14 is shown in FIG. 39 (a) and a differential interference image of abaxial epidermis of the second leaf of the rice to which synthesized stomagen was not administered in Test Example 14 is shown in FIG. 39 (b). In the figures, a framed part represents a stoma. […]

[5] = 2 μM at 2 days after germination, grown 3 days at 22° C., abaxial epidermis of cotyledon, vs not administered

Substance: purified recombinant stomagen: stomagen expressed in tobacco-cultured BY-2 cells and purified from culture supernatant by reversed-phase HPLC (IGSTAPTCTYNECRGCRYKCRAEQVPVEGNDPINSAYHYRCVCHR; Stomagen; UniProt Q9SV72 58-102, looked up)
- number of stomata [1, 5]: increased
- stomatal density [1, 5]: increased
- stomatal density, concentration dependence ([1]; recombinant stomagen expressed in BY-2 cells): concentration-dependently increase

Substance: stomagen: polypeptide comprising the amino acid sequence shown in SEQ ID NO: 6; 45-amino-acid peptide having six cysteine residues (IGSTAPTCTYNECRGCRYKCRAEQVPVEGNDPINSAYHYRCVCHR; listed as Arabidopsis thaliana)
- stomata (spch mutant): do not increase
- relationship between stomagen concentration and stomatal density (soybean (Kariyutaka)): positive correlation
- stability to heat and drying (stomatal density after treatment) [2]: stable to heat and drying

Substance: synthetic stomagen: chemically synthesized polypeptide (45 amino acids) comprising 58th to 102nd amino acid residues of SEQ ID NO: 1, refolded by dialysis (IGSTAPTCTYNECRGCRYKCRAEQVPVEGNDPINSAYHYRCVCHR; also: refolded by dialysis, disulfide pairing not given here; listed as Arabidopsis thaliana)
- stomatal density ([3]; 300 nM at 2 days after germination, grown 3 days at 22° C., abaxial epidermis of cotyledon, vs not administered): increases
- stomatal density, concentration dependence ([3]; chemically synthesized stomagen): concentration-dependently increase
- number of stomata [4]: increase
- stomatal density [4]: increase
